The values below come from ChEMBL document CHEMBL6127007, “Development of visible-light-activatable photocaged PROTACs” (Eur J Med Chem, 2024).

Active and inactive are the calls of the source. No cut-off for these calls is given here.

For data set [1], the target named is T1, Protein cereblon/Bromodomain-containing protein 4 (Homo sapiens, UniProt O60885+Q96SW2). Nature of the data set: Photocaged-PROTAC activity at CRBN/BRD4 in human Ramos cells assessed as reduction in Brd4 protein level at 0.03 to 10 uM pre-incubated for 2 hrs under dark followed by UV light irradiation at 3 mW/cm^2 for 3 mins and measured after 12 hrs by Western blot analysis. It counts as cell-based. To be noted: dose 0.03-10 µM, time 14.0 hrs.

Data set [2] has as its target T1, Protein cereblon/Bromodomain-containing protein 4. Nature of the data set: Photocaged-PROTAC activity at CRBN/BRD4 in human Ramos cells assessed as […] Brd4 protein degradation under dark condition pre-incubated for 12 hrs by Western blot analysis. It is filed as cell-based.
The target is the same in data set [3]. The data set can be described thus: Photocaged-PROTAC activity at CRBN/BRD4 in human Ramos cells assessed as […] Brd4 protein degradation pre-incubated for 2 hrs followed by UV light irradiation at 365 nM for 3 mins and measured after 12 hrs by Western blot analysis. It is filed as cell-based. (In general: Immunoblotting shows a protein as a band on a membrane.)

Data set [4] has the same target. The data set can be described thus: Photocaged-PROTAC activity at CRBN/BRD4 in human Ramos cells assessed as reduction in Brd4 protein level at 0.03 to 10 uM incubated for 12 hrs under dark by Western blot analysis. It counts as cell-based. Conditions: dose 0.03-10 µM.
For data set [5] the target is unchanged. The data set can be described thus: Photocaged-PROTAC activity at CRBN/BRD4 in human Ramos cells assessed as Brd4 protein degradation at 0.03 to 10 uM pre-incubated for 2 hrs under dark followed by 365 nm UV light irradiation for 3 mins and measured after 12 hrs by Western blot analysis. It counts as cell-based. Conditions: dose 0.03-10 µM.
Data set [6] can be described thus: Photoactivation of the Photocaged-PROTAC assessed as uncaging rate measuring dBET1 release under visible light measured at 1 min by HPLC analysis.
The target of data set [7] is T1, Protein cereblon/Bromodomain-containing protein 4. Nature of the data set: Photocaged-PROTAC activity at CRBN/BRD4 in human Ramos cells assessed as Brd4 protein degradation at 10000 nM incubated for 12 hrs under dark by Western blot analysis. It counts as cell-based.
The target is the same in data set [8]. The data set can be described thus: Photocaged-PROTAC activity at CRBN/BRD4 in human Ramos cells assessed as Brd4 protein degradation at 30 nM pre-incubated for 2 hrs under dark followed by 365 nm UV light irradiation for 3 mins and measured after 12 hrs by Western blot analysis. It is filed as cell-based. Conditions: time 14.0 hrs.
The test system of data set [9] is NAMALVA. Nature of the data set: Antiproliferative activity against human NAMALVA cells assessed as reduction in cell viability pre-incubated for 2 hrs under dark followed by visible light irradiation for 3 mins at 405 nm and measured after 72 hrs under dark condition by CellTiter-Glo luminescent assay. It counts as functional, cell-based. To be noted: light or radiation study. A general note: Cellular ATP, detected with luciferase, serves as a proxy for viable cell number.

Data set [10] addresses T1, Protein cereblon/Bromodomain-containing protein 4. The data set can be described thus: Photocaged-PROTAC activity at CRBN/BRD4 in human Ramos cells assessed as […] Brd4 protein degradation pre-incubated for 2 hrs followed by visible light irradiation at 405 nM for 3 mins and measured after 12 hrs by Western blot analysis. It is filed as cell-based.
For data set [11], the system named is NAMALVA. Nature of the data set: Antiproliferative activity against human NAMALVA cells assessed as reduction in cell viability upto 10 uM measured after 72 hrs by CellTiter-Glo luminescent assay. It is filed as functional, cell-based.
The target in data set [12] is T1, Protein cereblon/Bromodomain-containing protein 4. Nature of the data set: Photocaged-PROTAC activity at CRBN/BRD4 in human Ramos cells assessed as reduction in Brd4 protein level at 0.03 to 10 uM pre-incubated for 2 hrs followed by visible light irradiation at 405 nm for 3 mins and measured after 12 hrs by Western blot analysis. It counts as cell-based. Conditions: dose 0.03-10 µM, time 14.0 hrs.

The subject of data set [13] is NAMALVA. Nature of the data set: Antiproliferative activity against human NAMALVA cells assessed as reduction in cell viability upto 10 uM measured after 72 hrs under dark condition by CellTiter-Glo luminescent assay. It is filed as functional, cell-based.
Data set [14] addresses T1, Protein cereblon/Bromodomain-containing protein 4. The data set can be described thus: Photocaged-PROTAC activity at CRBN/BRD4 in human Ramos cells assessed as Brd4 protein degradation at 0.03 to 10 uM incubated for 12 hrs under dark by Western blot analysis. It is filed as cell-based. To be noted: dose 0.03-10 µM.
Data set [15] shares this target. Nature of the data set: Photocaged-PROTAC activity at CRBN/BRD4 in human Ramos cells assessed as Brd4 protein degradation upto 3 uM pre-incubated for 2 hrs under dark followed by 365 nm UV light irradiation for 3 mins and measured after 12 hrs by Western blot analysis. It is filed as cell-based. Conditions: time 14.0 hrs.

The term DC50 denotes the concentration at which degradation of the target reaches its halfway point. In general, IC50 refers to the point on the concentration scale where inhibition reaches its midpoint.

T1 sequence (Q96SW2 whole entry, looked up, other chains not shown): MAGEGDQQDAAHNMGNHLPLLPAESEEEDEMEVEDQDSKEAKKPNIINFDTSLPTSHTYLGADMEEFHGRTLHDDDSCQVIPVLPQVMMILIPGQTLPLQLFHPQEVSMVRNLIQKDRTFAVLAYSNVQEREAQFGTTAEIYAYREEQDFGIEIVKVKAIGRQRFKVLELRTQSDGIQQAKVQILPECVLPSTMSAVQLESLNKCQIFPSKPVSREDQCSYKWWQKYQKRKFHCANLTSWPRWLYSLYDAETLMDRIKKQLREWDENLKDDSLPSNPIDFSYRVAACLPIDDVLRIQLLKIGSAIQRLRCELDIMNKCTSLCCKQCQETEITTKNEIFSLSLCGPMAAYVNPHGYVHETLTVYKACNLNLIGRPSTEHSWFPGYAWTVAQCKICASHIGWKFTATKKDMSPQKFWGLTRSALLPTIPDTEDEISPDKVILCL

On to `CCN(Cc1cc(OC)c(OC)cc1[N+](=O)[O-])C(=O)c1sc2c(c1C)C(c1ccc(Cl)cc1)=N[C@@H](CC(=O)NCCCCNC(=O)COc1cccc3c1C(=O)N(C1CCC(=O)NC1=O)C3=O)c1nnc(C)n1-2` (some centres not stated), for which, in [1], the result was Active. Besides, the DC50 was greater than 10000 nM in [2] and 1980 nM in data set [3].

Regarding `COc1cc(CN(CCCCNC(=O)C[C@@H]2N=C(c3ccc(Cl)cc3)c3c(sc(C)c3C)-n3c(C)nnc32)C(=O)COc2cccc3c2C(=O)N(C2CCC(=O)NC2=O)C3=O)c([N+](=O)[O-])cc1OC` (some centres not stated), the result in data set [4] was Active. The half-maximal degradation concentration (DC50) in data set [2] is 59 nM; in data set [3] it was 55 nM.

For `COc1cc(COC(=O)O[C@@H]2C[C@@H](C(=O)NCc3ccc(-c4scnc4C)cc3)N(C(=O)[C@@H](NC(=O)COCCOCCOCCOC(=O)C[C@@H]3N=C(c4ccc(Cl)cc4)c4c(sc(C)c4C)-n4c(C)nnc43)C(C)(C)C)C2)c([N+](=O)[O-])cc1OC`, in data set [5], the outcome was Active. Moreover, the half-maximal degradation concentration (DC50) in [2] and in [3] was less than 30 nM throughout. The result in [6] was Active.

For the compound `COc1cc(CN(Cc2ccc(-c3scnc3C)cc2)C(=O)[C@@H]2C[C@@H](O)CN2C(=O)[C@@H](NC(=O)COCCOCCOCCOC(=O)C[C@@H]2N=C(c3ccc(Cl)cc3)c3c(sc(C)c3C)-n3c(C)nnc32)C(C)(C)C)c([N+](=O)[O-])cc1OC`, the outcome in [7] was inactive. In addition, the outcome in data set [5] and in data set [8] was Active. The values for the 50% degradation concentration (DC50) in [2] and in data set [3] were greater than 10000 nM and less than 30 nM, respectively. Moreover, the result in data set [6] was Active.

Turning to `Cc1sc2c(c1C)C(c1ccc(Cl)cc1)=N[C@@H](CC(=O)N(CCCCNC(=O)COc1cccc3c1C(=O)N(C1CCC(=O)NC1=O)C3=O)Cc1cc3oc4ccccc4c3cc1[N+](=O)[O-])c1nnc(C)n1-2` (some centres not stated), the results for the half-maximal inhibitory concentration (IC50) in [9] and in data set [13] were 287 nM and greater than 10000 nM, respectively. Further, the DC50 in data set [10] worked out at 32 nM. In addition, in data set [11], the outcome was inactive. In addition, in data set [12], the outcome was Active. In addition, the outcome in data set [6] was Active.

On to `COc1cc(CN2C(=O)CCC(N3C(=O)c4cccc(OCC(=O)NCCCCNC(=O)C[C@@H]5N=C(c6ccc(Cl)cc6)c6c(sc(C)c6C)-n6c(C)nnc65)c4C3=O)C2=O)c([N+](=O)[O-])cc1OC` (some centres not stated), for which the result in data set [4] was inactive. Besides, the figures for the DC50 in data set [2] and in data set [3] were greater than 10000 nM and 2310 nM, respectively.

Take `Cc1sc2c(c1C)C(c1ccc(Cl)cc1)=N[C@@H](CC(=O)NCCCCNC(=O)COc1cccc3c1C(=O)N(C1CCC(=O)N(OCc4cc5oc6ccccc6c5cc4[N+](=O)[O-])C1=O)C3=O)c1nnc(C)n1-2` (some centres not stated): the IC50 in [9] is 741 nM; in data set [13], greater than 2350 nM. In addition, the DC50 in data set [10] is 108 nM. Moreover, the outcome in data set [12] was Active. The outcome in data set [6] was Active.

For `Cc1sc2c(c1C)C(c1ccc(Cl)cc1)=N[C@@H](CC(=O)N(CCCCNC(=O)COc1cccc3c1C(=O)N(C1CCC(=O)NC1=O)C3=O)C(C)c1cc3c(cc1[N+](=O)[O-])oc1ccccc13)c1nnc(C)n1-2` (some centres not stated), the values for the IC50 in [9] and in [13] were 291 nM and greater than 10000 nM, respectively. In data set [10], the half-maximal degradation concentration (DC50) stood at 65 nM. The outcome in data set [11] was inactive. Further, in data set [12], the outcome was Active. Also, the result in data set [6] was Active.

Regarding `CCNC(=O)c1sc2c(c1C)C(c1ccc(Cl)cc1)=N[C@@H](CC(=O)NCCCCNC(=O)COc1cccc3c1C(=O)N(C1CCC(=O)NC1=O)C3=O)c1nnc(C)n1-2` (some centres not stated), the result in data set [1] was Active.

Turning to `Cc1ncsc1-c1ccc(CNC(=O)[C@@H]2C[C@@H](O)CN2C(=O)[C@@H](NC(=O)COCCOCCOCCNC(=O)C[C@@H]2N=C(c3ccc(Cl)cc3)c3c(sc(C)c3C)-n3c(C)nnc32)C(C)(C)C)cc1`, the IC50 in data set [9] came to 170 nM.

Turning to `Cc1sc2c(c1C)C(c1ccc(Cl)cc1)=N[C@@H](CC(=O)NCCCCNC(=O)COc1cccc3c1C(=O)N(C1CCC(=O)NC1=O)C3=O)c1nnc(C)n1-2` (some centres not stated), in [9], the concentration for half-maximal inhibition (IC50) turned out to be 317 nM.

As to `COc1cc(CN(C(=O)COCCOCCOCCOC(=O)C[C@@H]2N=C(c3ccc(Cl)cc3)c3c(sc(C)c3C)-n3c(C)nnc32)[C@H](C(=O)N2C[C@H](O)C[C@H]2C(=O)NCc2ccc(-c3scnc3C)cc2)C(C)(C)C)c([N+](=O)[O-])cc1OC`, the outcome in data set [5] and in data set [14] was inactive. Moreover, the DC50 in data set [2] and in data set [3] was greater than 10000 nM throughout.

For `Cc1ncsc1-c1ccc(CN(Cc2cc3c(cc2[N+](=O)[O-])oc2ccccc23)C(=O)[C@@H]2C[C@@H](O)CN2C(=O)[C@@H](NC(=O)COCCOCCOCCOC(=O)C[C@@H]2N=C(c3ccc(Cl)cc3)c3c(sc(C)c3C)-n3c(C)nnc32)C(C)(C)C)cc1`, the figures for the IC50 in [9] and in [13] were 140 nM and 1170 nM, respectively. Also, in data set [15], the result was Active. Also, the half-maximal degradation concentration (DC50) in data set [10] was less than 30 nM.

On to `Cc1sc2c(c1C)C(c1ccc(Cl)cc1)=N[C@@H](CC(=O)N(CCCCNC(=O)COc1cccc3c1C(=O)N(C1CCC(=O)NC1=O)C3=O)Cc1cc3c(cc1[N+](=O)[O-])oc1cc(N(C)C)ccc13)c1nnc(C)n1-2` (some centres not stated), for which the IC50 in data set [9] was 476 nM; in [13], greater than 10000 nM. In addition, the DC50 in [10] worked out at 62 nM. For the same compound, the outcome in data set [11] was inactive. The result in data set [12] was Active. Also, in data set [6], the outcome was Active.

Consider `COc1cc(CON2C(=O)CCC(N3C(=O)c4cccc(OCC(=O)NCCCCNC(=O)C[C@@H]5N=C(c6ccc(Cl)cc6)c6c(sc(C)c6C)-n6c(C)nnc65)c4C3=O)C2=O)c([N+](=O)[O-])cc1OC` (some centres not stated), for which the outcome in data set [1] was Active. The outcome in data set [4] was inactive. Moreover, the DC50 in data set [2] is greater than 10000 nM; in [3] it was 148 nM.
